Data from patent US20110071155A1, “Tricyclic Nitrogen Containing Compounds And Their Use As Antibacterials” (priority 2008, published 2011).
Converted amounts (≈) assume the structure as drawn.

Key:
[1] = Antimicrobial Activity Assay: whole-cell broth microdilution (CLSI M7-A7); type: cell-based, Gram-positive and Gram-negative organisms; details: at least one of S. aureus, S. pneumoniae, E. faecalis, H. influenzae, M. catarrhalis, E. coli, read-out: MIC against at least one of the organisms listed
Protocol: Antimicrobial Activity Assay: Whole-cell antimicrobial activity was determined by broth microdilution using the Clinical Laboratory Standards Institute (CLSI) recommended procedure, Document M7-A7, “Methods for Dilution Susceptibility Tests for Bacteria that Grow Aerobically”. Compounds were evaluated against Gram-positive organisms, including Staphylococcus aureus, Streptococcus pneumoniae, and Enterococcus faecalis. In addition, compounds were evaluated against Gram-negative organisms including Haemophilus influenzae, Moraxella catarrhalis, and Escherichia coli. The minimum inhibitory concentration (MIC) was determined as the lowest concentration of compound that inhibited visible growth. A mirror reader was used to assist in determining the MIC endpoint.

[2] = test system: Mycobacterium tuberculosis H37Rv; experiment: Mycobacterium tuberculosis H37Rv Inhibition Assay (resazurin MIC); type: cell-based; details: ATCC 25618 / H37Rv, H37Rv strain (ATCC25618), Middlebrook 7H9+ADC, six days at 37° C., resazurin fluorescence after 48 hours, read-out: MtB MIC

Row | Structure (SMILES) | MIC [1] [µg/mL] | MIC [2] [µg/mL]
1 | O=c1ccc2ccc(=O)n3c2n1C[C@H]3CN1CCC(NC/C=C/c2cc(F)ccc2F)CC1 [Example 1, (1R)-1-[(4-{[(2E)-3-(2,5-difluorophenyl)-2-propen-1-yl]amino}-1-piperidinyl)methyl]-1,2-dihydro-4H,9H-imidazo[1,2,3-ij]-1,8-naphthyridine-4,9-dione] | < 2 | 0.071 (≈ 0.157 µM)
2 | O=c1ccc2ncc(=O)n3c2n1CC3CN1CCC(NC/C=C/c2cccc(F)c2)CC1 (stereo not drawn) [Example 2, 2-[(4-{[(2E)-3-(3-fluorophenyl)-2-propen-1-yl]amino}-1-piperidinyl)methyl]-1,2-dihydro-3H,8H-2a,5,8a-triazaacenaphthylene-3,8-dione] | < 2 | 0.102 (≈ 0.234 µM)
3 | O=c1ccc2ccc(=O)n3c2n1C[C@H]3CN1CCC(NC/C=C/c2cncc(F)c2)CC1 [Example 4, (1R)-1-[(4-{[(2E)-3-(5-fluoro-3-pyridinyl)-2-propen-1-yl]amino}-1-piperidinyl)methyl]-1,2-dihydro-4H,9H-imidazo[1,2,3-ij]-1,8-naphthyridine-4,9-dione] | < 2 | 0.544 (≈ 1.25 µM)
4 | O=c1ccc2ncc(=O)n3c2n1CC3CN1CCC(NC/C=C/c2cncc(F)c2)CC1 (stereo not drawn) [Example 5, 2-[(4-{[(2E)-3-(5-fluoro-3-pyridinyl)-2-propen-1-yl]amino}-1-piperidinyl)methyl]-1,2-dihydro-3H,8H-2a,5,8a-triazaacenaphthylene-3,8-dione] |  | 0.273 (≈ 0.625 µM)
5 | O=c1ccc2ncc(=O)n3c2n1CC3CN1CCC(NCCNc2cccc(F)c2)CC1 (stereo not drawn) [Example 7, 2-{[4-({2-[(3-Fluorophenyl)amino]ethyl}amino)-1-piperidinyl]methyl}-1,2-dihydro-3H,8H-2a,5,8a-triazaacenaphthylene-3,8-dione] |  | 0.071 (≈ 0.162 µM)
6 | O=c1ccc2ncc(=O)n3c2n1CC3CN1CCC(NCCOc2cccc(F)c2)CC1 (stereo not drawn) [Example 6, 2-{[4-({2-[(3-fluorophenyl)oxy]ethyl}amino)-1-piperidinyl]methyl}-1,2-dihydro-3H,8H-2a,5,8a-triazaacenaphthylene-3,8-dione] | < 2 | 0.824 (≈ 1.87 µM)
7 | O=c1ccc2ncc(=O)n3c2n1CC3CN1CCC(NCCCc2cccc(F)c2)CC1 (stereo not drawn) [Example 3, 2-[(4-{[3-(3-fluorophenyl)propyl]amino}-1-piperidinyl)methyl]-1,2-dihydro-3H,8H-2a,5,8a-triazaacenaphthylene-3,8-dione] | < 2 | 0.82 (≈ 1.87 µM)
